Assay results published in patent US20260224716A1, “PTH ANALOGS FOR THE TREATMENT OF HYPOPARATHYROIDISM” (priority 2020, published 2026).

Assays:
PTH1 receptor = target: T1, PTH1 receptor (Homo sapiens, UniProt Q03431); assay: Luciferase-based reporter gene assay for cAMP detection (HEK293 cells); type: cell-based
T1 construct: expressed in transfected cells; host or cells: HEK293
T1 sequence (Q03431 27-593): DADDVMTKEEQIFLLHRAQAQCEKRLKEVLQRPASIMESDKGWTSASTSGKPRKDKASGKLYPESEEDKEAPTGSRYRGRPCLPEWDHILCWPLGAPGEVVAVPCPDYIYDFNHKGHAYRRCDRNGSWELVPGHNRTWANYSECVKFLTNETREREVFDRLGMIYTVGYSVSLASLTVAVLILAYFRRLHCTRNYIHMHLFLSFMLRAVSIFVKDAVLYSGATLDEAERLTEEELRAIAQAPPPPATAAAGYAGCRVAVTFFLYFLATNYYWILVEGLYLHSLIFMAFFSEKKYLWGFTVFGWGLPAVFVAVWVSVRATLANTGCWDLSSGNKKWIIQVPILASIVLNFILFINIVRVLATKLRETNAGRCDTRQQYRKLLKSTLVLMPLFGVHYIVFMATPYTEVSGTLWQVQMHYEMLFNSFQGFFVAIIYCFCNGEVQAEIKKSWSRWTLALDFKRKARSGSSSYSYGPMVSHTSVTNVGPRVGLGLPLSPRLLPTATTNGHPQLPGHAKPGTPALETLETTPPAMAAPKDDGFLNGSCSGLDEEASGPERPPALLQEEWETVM
Method: At the end of the incubation, 50 μL of Steady-Lite Plus (PerkinElmer, Waltham, MA) were added to each well. The plate was shaken briefly, incubated four minutes and light output was measured on an EnSpire Alpha Multi-mode Plate Reader (PerkinElmer, Waltham, MA).

[1] = Cleavage half-life / conversion of PTH prodrugs in PBS pH 7.4, 37° C. by LC-MS; type: physicochemical; conditions: for half-life: PBS buffer, dipeptide cleavage from PTH prodrug, PBS pH 7.4, 37° C., read-out: Half life (converted)
Method: The resulting solution was incubated at 37° C. Aliquots were taken at designed time points and analyzed by LC-MS. […] Flow rate of 1 mL/min and a gradient of 10%-80% acetonitrile in water, with 0.1% trifluoroacetic acid over 10 min. […] The concentration of prodrug and drug were determined by their relative peak areas. The […] dissociation rate constant of the prodrug was determined by plotting the logarithm in the concentration of the prodrug at various time points.

half-life [1] | Half life, fold faster than Sar (vs SEQ ID NO: 52) ([1]; comparator SEQ ID NO: 52) | also measured | SMILES
– | – | potency at the PTH receptor (PTH1 receptor; FIGS. 3A, 3B, luciferase reporter of cAMP production): decreases the potency; EC50 (PTH1 receptor; HEK293 cells, PTH1 receptor, cAMP-responsive luciferase, 5 hours, read-out: Potency EC50): 45.5 nM | CC[C@H](C)[C@H](NC(=O)[C@H](CCC(=O)O)NC(=O)[C@H](CO)NC(=O)[C@@H](NC(=O)[C@H](CO)NC(=O)CN(C)C(=O)[C@H](N)CCCCNC(=O)CC[C@H](NC(=O)CCCCCCCCCCCCCCCCC(=O)O)C(=O)O)C(C)C)C(=O)N[C@@H](CCC(N)=O)C(=O)N[C@@H](CC(C)C)C(=O)N[C@@H](CCSC)C(=O)N[C@@H](Cc1c[nH]cn1)C(=O)N[C@@H](CC(N)=O)C(=O)N[C@@H](CC(C)C)C(=O)NCC(=O)N[C@@H](CCCCN)C(=O)N[C@@H](Cc1c[nH]cn1)C(=O)N[C@@H](CC(C)C)C(=O)N[C@@H](CC(N)=O)C(=O)N[C@@H](CO)C(=O)N[C@@H](CCSC)C(=O)N[C@@H](CCC(=O)O)C(=O)N[C@@H](CCCNC(=N)N)C(=O)N[C@H](C(=O)N[C@@H](CCC(=O)O)C(=O)N[C@@H](Cc1c[nH]c2ccccc12)C(=O)N[C@@H](CC(C)C)C(=O)N[C@@H](CCCNC(=N)N)C(=O)N[C@@H](CCCCN)C(=O)N[C@@H](CCCCN)C(=O)N[C@@H](CC(C)C)C(=O)N[C@@H](CCC(N)=O)C(=O)N[C@@H](CC(=O)O)C(=O)N[C@H](C(=O)N[C@@H](Cc1c[nH]cn1)C(=O)N[C@@H](CCC(N)=O)C(=O)N[C@@H](Cc1ccccc1)C(=O)O)C(C)C)C(C)C [SEQ ID NO: 61]
71 h | 1.8 faster than Sar | – | CC[C@H](C)[C@H](NC(=O)[C@H](CCC(=O)O)NC(=O)[C@H](CO)NC(=O)[C@@H](NC(=O)[C@H](CO)NC(=O)[C@H](C)N(C)C(=O)[C@@H](N)CCCCNC(=O)CC[C@H](NC(=O)CCCCCCCCCCCCCCCCC(=O)O)C(=O)O)C(C)C)C(=O)N[C@@H](CCC(N)=O)C(=O)N[C@@H](CC(C)C)C(=O)N[C@@H](CCSC)C(=O)N[C@@H](Cc1c[nH]cn1)C(=O)N[C@@H](CC(N)=O)C(=O)N[C@@H](CC(C)C)C(=O)NCC(=O)N[C@@H](CCCCN)C(=O)N[C@@H](Cc1c[nH]cn1)C(=O)N[C@@H](CC(C)C)C(=O)N[C@@H](CC(N)=O)C(=O)N[C@@H](CO)C(=O)N[C@@H](CCSC)C(=O)N[C@@H](CCC(=O)O)C(=O)N[C@@H](CCCNC(=N)N)C(=O)N[C@H](C(=O)N[C@@H](CCC(=O)O)C(=O)N[C@@H](Cc1c[nH]c2ccccc12)C(=O)N[C@@H](CC(C)C)C(=O)N[C@@H](CCCNC(=N)N)C(=O)N[C@@H](CCCCN)C(=O)N[C@@H](CCCCN)C(=O)N[C@@H](CC(C)C)C(=O)N[C@@H](CCC(N)=O)C(=O)N[C@@H](CC(=O)O)C(=O)N[C@H](C(=O)N[C@@H](Cc1c[nH]cn1)C(=O)N[C@@H](CC(N)=O)C(=O)N[C@@H](Cc1ccccc1)C(=O)O)C(C)C)C(C)C [SEQ ID NO: 53]
130 h | – | Half life, fold slower than dK (vs SEQ ID NO: 45) ([1]; comparator SEQ ID NO: 45): 1.4 slower than dK | CC[C@H](C)[C@H](NC(=O)[C@H](CCC(=O)O)NC(=O)[C@H](CO)NC(=O)[C@@H](NC(=O)[C@H](CO)NC(=O)CN(C)C(=O)[C@@H](N)CCCCNC(=O)CC[C@H](NC(=O)CCCCCCCCCCCCCCCCC(=O)O)C(=O)O)C(C)C)C(=O)N[C@@H](CCC(N)=O)C(=O)N[C@@H](CC(C)C)C(=O)N[C@@H](CCSC)C(=O)N[C@@H](Cc1c[nH]cn1)C(=O)N[C@@H](CC(N)=O)C(=O)N[C@@H](CC(C)C)C(=O)NCC(=O)N[C@@H](CCCCN)C(=O)N[C@@H](Cc1c[nH]cn1)C(=O)N[C@@H](CC(C)C)C(=O)N[C@@H](CC(N)=O)C(=O)N[C@@H](CO)C(=O)N[C@@H](CCSC)C(=O)N[C@@H](CCC(=O)O)C(=O)N[C@@H](CCCNC(=N)N)C(=O)N[C@H](C(=O)N[C@@H](CCC(=O)O)C(=O)N[C@@H](Cc1c[nH]c2ccccc12)C(=O)N[C@@H](CC(C)C)C(=O)N[C@@H](CCCNC(=N)N)C(=O)N[C@@H](CCCCN)C(=O)N[C@@H](CCCCN)C(=O)N[C@@H](CC(C)C)C(=O)N[C@@H](CCC(N)=O)C(=O)N[C@@H](CC(=O)O)C(=O)N[C@H](C(=O)N[C@@H](Cc1c[nH]cn1)C(=O)N[C@@H](CC(N)=O)C(=O)N[C@@H](Cc1ccccc1)C(=O)O)C(C)C)C(C)C [SEQ ID NO: 52]
67 h | 1.9 faster than Sar | Half life, fold slower than dK (vs SEQ ID NO: 46) ([1]; comparator SEQ ID NO: 46): 1.4 slower than dK | CC[C@H](C)[C@H](NC(=O)[C@H](CCC(=O)O)NC(=O)[C@H](CO)NC(=O)[C@@H](NC(=O)[C@H](CO)NC(=O)CN(C(=O)[C@@H](N)CCCCNC(=O)CC[C@H](NC(=O)CCCCCCCCCCCCCCCCC(=O)O)C(=O)O)C(C)C)C(C)C)C(=O)N[C@@H](CCC(N)=O)C(=O)N[C@@H](CC(C)C)C(=O)N[C@@H](CCSC)C(=O)N[C@@H](Cc1c[nH]cn1)C(=O)N[C@@H](CC(N)=O)C(=O)N[C@@H](CC(C)C)C(=O)NCC(=O)N[C@@H](CCCCN)C(=O)N[C@@H](Cc1c[nH]cn1)C(=O)N[C@@H](CC(C)C)C(=O)N[C@@H](CC(N)=O)C(=O)N[C@@H](CO)C(=O)N[C@@H](CCSC)C(=O)N[C@@H](CCC(=O)O)C(=O)N[C@@H](CCCNC(=N)N)C(=O)N[C@H](C(=O)N[C@@H](CCC(=O)O)C(=O)N[C@@H](Cc1c[nH]c2ccccc12)C(=O)N[C@@H](CC(C)C)C(=O)N[C@@H](CCCNC(=N)N)C(=O)N[C@@H](CCCCN)C(=O)N[C@@H](CCCCN)C(=O)N[C@@H](CC(C)C)C(=O)N[C@@H](CCC(N)=O)C(=O)N[C@@H](CC(=O)O)C(=O)N[C@H](C(=O)N[C@@H](Cc1c[nH]cn1)C(=O)N[C@@H](CC(N)=O)C(=O)N[C@@H](Cc1ccccc1)C(=O)O)C(C)C)C(C)C [SEQ ID NO: 48]
47 h | – | Half life, fold faster (vs SEQ ID NO: 45) ([1]; comparator SEQ ID NO: 45): 1.9 faster than Sar | CC[C@H](C)[C@H](NC(=O)[C@H](CCC(=O)O)NC(=O)[C@H](CO)NC(=O)[C@@H](NC(=O)[C@H](CO)NC(=O)CN(C(=O)[C@H](N)CCCCNC(=O)CC[C@H](NC(=O)CCCCCCCCCCCCCCCCC(=O)O)C(=O)O)C(C)C)C(C)C)C(=O)N[C@@H](CCC(N)=O)C(=O)N[C@@H](CC(C)C)C(=O)N[C@@H](CCSC)C(=O)N[C@@H](Cc1c[nH]cn1)C(=O)N[C@@H](CC(N)=O)C(=O)N[C@@H](CC(C)C)C(=O)NCC(=O)N[C@@H](CCCCN)C(=O)N[C@@H](Cc1c[nH]cn1)C(=O)N[C@@H](CC(C)C)C(=O)N[C@@H](CC(N)=O)C(=O)N[C@@H](CO)C(=O)N[C@@H](CCSC)C(=O)N[C@@H](CCC(=O)O)C(=O)N[C@@H](CCCNC(=N)N)C(=O)N[C@H](C(=O)N[C@@H](CCC(=O)O)C(=O)N[C@@H](Cc1c[nH]c2ccccc12)C(=O)N[C@@H](CC(C)C)C(=O)N[C@@H](CCCNC(=N)N)C(=O)N[C@@H](CCCCN)C(=O)N[C@@H](CCCCN)C(=O)N[C@@H](CC(C)C)C(=O)N[C@@H](CCC(N)=O)C(=O)N[C@@H](CC(=O)O)C(=O)N[C@H](C(=O)N[C@@H](Cc1c[nH]cn1)C(=O)N[C@@H](CC(N)=O)C(=O)N[C@@H](Cc1ccccc1)C(=O)O)C(C)C)C(C)C [SEQ ID NO: 46]
250 h | – | Half life, fold slower than Sar (vs SEQ ID NO: 52) ([1]; comparator SEQ ID NO: 52): 1.9 slower than Sar | CC[C@H](C)[C@H](NC(=O)[C@H](CCC(=O)O)NC(=O)[C@H](CO)NC(=O)[C@@H](NC(=O)[C@H](CO)NC(=O)[C@@H]1CCCCN1C(=O)[C@@H](N)CCCCNC(=O)CC[C@H](NC(=O)CCCCCCCCCCCCCCCCC(=O)O)C(=O)O)C(C)C)C(=O)N[C@@H](CCC(N)=O)C(=O)N[C@@H](CC(C)C)C(=O)N[C@@H](CCSC)C(=O)N[C@@H](Cc1c[nH]cn1)C(=O)N[C@@H](CC(N)=O)C(=O)N[C@@H](CC(C)C)C(=O)NCC(=O)N[C@@H](CCCCN)C(=O)N[C@@H](Cc1c[nH]cn1)C(=O)N[C@@H](CC(C)C)C(=O)N[C@@H](CC(N)=O)C(=O)N[C@@H](CO)C(=O)N[C@@H](CCSC)C(=O)N[C@@H](CCC(=O)O)C(=O)N[C@@H](CCCNC(=N)N)C(=O)N[C@H](C(=O)N[C@@H](CCC(=O)O)C(=O)N[C@@H](Cc1c[nH]c2ccccc12)C(=O)N[C@@H](CC(C)C)C(=O)N[C@@H](CCCNC(=N)N)C(=O)N[C@@H](CCCCN)C(=O)N[C@@H](CCCCN)C(=O)N[C@@H](CC(C)C)C(=O)N[C@@H](CCC(N)=O)C(=O)N[C@@H](CC(=O)O)C(=O)N[C@H](C(=O)N[C@@H](Cc1c[nH]cn1)C(=O)N[C@@H](CC(N)=O)C(=O)N[C@@H](Cc1ccccc1)C(=O)O)C(C)C)C(C)C [SEQ ID NO: 54]
